Results published in US20110190235A1, “BORON-CONTAINING SMALL MOLECULES AS ANTIPROTOZOAL AGENTS” (Anacor Pharmaceuticals, Inc., priority 2009, published 2011).
≈ marks a conversion by molar mass, not a printed value. Read-outs that look alike come from different tables or passages of the source.

Tests used:
[1] = Kinetic solubility by nephelometric (light scattering) method; format: physicochemical; details: phosphate buffered saline, aqueous buffer, kinetic from dmso stock, PBS pH 7.4
Method: The kinetic solubilities of compounds were estimated using a nephelometric (light scattering) method. Briefly, compounds were serially diluted in DMSO, followed by dilution in PBS pH 7.4. After incubation, the amount of light scattered by a compound at each concentration was measured. […] At concentrations above the solubility limit, the compound precipitates and the precipitant in the well scatters the light, generating a signal. Higher levels of precipitant in a well scatter more light and produce a stronger signal.
A stock solution of compound (25 mM in DMSO) was prepared, and was serially diluted in DMSO in two-fold increments in a row of a 96 well plate to a lowest concentration of 24 μM. A duplicate plate was prepared by transfer of half of the volume of each well to a new plate. Each well containing DMSO solution of the test compound was then diluted further (1:100) with phosphate buffered saline (pH 7.4) to provide aqueous solutions of compound at the following final concentrations: 250, 125, 62.5, 31.3, 15.6, 7.8, 3.9, 2.0, 1.0, 0.5 and 0.2 μM. All liquid handling stages were performed on a Beckman Coulter Biomek NX Laboratory Automation Workstation. Each compound was diluted and tested in duplicate, providing four separate wells at each test concentration.
The test solutions of compound were incubated at room temperature for 90 minutes and then analyzed using a Thermoskan Ascent nephelometric plate reader. The nephelometer protocol included two steps: first, the plate was shaken for 60 seconds at 1200 rpm, then each well of the plate was read in succession with an 800 ms settling delay between measurements. The total measurement time for a single plate was less than 4 minutes.
The four values (in nephelometric units) obtained for each compound at each concentration were averaged and plotted on a log scale versus concentration.

[2] = system: bloodstream-form trypanosome T. brucei brucei 427 strain; experiment: Trypanosoma brucei brucei high-throughput in vitro drug sensitivity assay (resazurin); format: cell-based; details: for Selectivity Index (L929 IC50 / T. b. brucei IC50): T. b. brucei vs L929; for IC50: Trypanosoma brucei
[3] = L929 cytotoxicity evaluation (resazurin); format: cell-based; details: mouse, L929 mouse fibroblast cells; 72 hrs incubation; read-out: Cytotox L-929 IC50
Method in brief: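 Mouse L929 fibroblasts (1×10^4/mL seeding, attached overnight) were treated 72 h at 37 °C, 5% CO2 with serially diluted compounds in DMSO in D-MEM/10% FBS. Viability read by resazurin fluorescence after 3–4 h (ex 544/em 590 nm); IC50 from sigmoidal fits of single data points.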

[4] = 72 h, read-out: T.b. brucei IC50 (ug/mL)
[5] = 72 hrs incubation, read-out: T. b. brucei IC50
[6] = 72 hrs incubation, read-out: T.b. brucei IC50

Structure (SMILES) | solubility at 90 min [1] [µM] | Selectivity Index (L929 IC50 / T. b. brucei IC50) [2] | IC50 ([2]; 72 h, read-out: T. b. brucei IC50 (nM)) [nM] | IC50 [2, 4] [µg/mL] | IC50 at 72 h [3] [µg/mL] | IC50 [2, 5] [nM] | IC50 [2, 6] [µg/mL]
O=C(Nc1ccc2c(c1)B(O)OC21CCC1)c1ccc(F)cc1C(F)(F)F [compound 134] | 100 (≈ 37.9 µg/mL) | >30 | 892 | 0.338 | > 10 | – | –
CC1(C)OB(O)c2cc(NC(=O)c3ccccc3Cl)ccc21 [compound 38, 2-Chloro-N-(1-hydroxy-3,3-dimethyl-1,3-dihydro-benzo[c][1,2]oxaborol-6-yl)-benzamide] | 13 (≈ 4.1 µg/mL) | >60 | – | – | > 10 | 532 | 0.168
CC1(C)OB(O)c2cc(NC(=O)c3ccccc3)ccc21 [compound 26, N-(1-Hydroxy-3,3-dimethyl-1,3-dihydro-benzo[c][1,2]oxaborol-6-yl)-benzamide] | 200 (≈ 56.2 µg/mL) | – | – | – | > 10 | – | > 5
CC1(C)OB(O)c2cc(NC(=O)c3ccccc3C(F)(F)F)ccc21 [compound 34, N-(1-Hydroxy-3,3-dimethyl-1,3-dihydro-benzo[c][1,2]oxaborol-6-yl)-2-trifluoromethyl-benzamide] | 50 (≈ 17.5 µg/mL) | >94 | – | – | > 10 | 304 | 0.106
CC(C)c1ccc(C(=O)Nc2ccc3c(c2)B(O)OC3(C)C)c(Cl)c1 [compound 101, 2-Chloro-N-(1-hydroxy-3,3-dimethyl-1,3-dihydro-benzo[c][1,2]oxaborol-6-yl)-4-isopropyl-benzamide] | 25 (≈ 8.94 µg/mL) | – | – | 0.05 | 8.43 (≈ 23.6 µM) | – | –
CC1OB(O)c2cc(NC(=O)c3ccc(F)cc3Cl)ccc21 (stereo not shown) [compound 13, 2-Chloro-4-fluoro-N-(1-hydroxy-3-methyl-1,3-dihydro-benzo[c][1,2]oxaborol-6-yl)-benzamide] | > 200 | 47 | – | – | 2 (≈ 6.26 µM) | 135 | 0.043
CC1OB(O)c2cc(NC(=O)c3ccccc3Br)ccc21 (stereo not shown) [compound 14, 2-Bromo-N-(1-hydroxy-3-methyl-1,3-dihydro-benzo[c][1,2]oxaborol-6-yl)-benzamide] | 100 (≈ 34.6 µg/mL) | 39 | – | – | 1.67 (≈ 4.83 µM) | 124 | 0.043
CC1OB(O)c2cc(NC(=O)c3ccc(Cl)cc3)ccc21 (stereo not shown) [compound 9, 4-Chloro-N-(1-hydroxy-3-methyl-1,3-dihydro-benzo[c][1,2]oxaborol-6-yl)-benzamide] | 25 (≈ 7.54 µg/mL) | >208 | – | – | > 10 | 159 | 0.048
O=C(Nc1ccc2c(c1)B(O)OC2C1CCCC1)c1ccc(F)cc1C(F)(F)F (stereo not shown) [compound 19, N-(3-Cyclopentyl-1-hydroxy-1,3-dihydro-benzo[c][1,2]oxaborol-6-yl)-4-fluoro-2-trifluoromethyl-benzamide] | 100 (≈ 40.7 µg/mL) | >3 | – | – | > 10 | 7810 | 3.18
CC(C)CC1OB(O)c2cc(NC(=O)c3ccc(F)cc3C(F)(F)F)ccc21 (stereo not shown) [compound 23, 4-Fluoro-N-(1-hydroxy-3-isobutyl-1,3-dihydro-benzo[c][1,2]oxaborol-6-yl)-2-trifluoromethyl-benzamide] | 25 (≈ 9.88 µg/mL) | >4 | – | – | > 10 | 6100 | 2.41
CC(C)(C)c1ccc(C(=O)Nc2ccc3c(c2)B(O)OC3(C)C)cc1 [compound 33, 4-tert-Butyl-N-(1-hydroxy-3,3-dimethyl-1,3-dihydro-benzo[c][1,2]oxaborol-6-yl)-benzamide] | 6 (≈ 2.02 µg/mL) | – | – | – | > 10 | – | 0.229
CC1(C)OB(O)c2cc(NC(=O)c3ccccn3)ccc21 [compound 114, Pyridine-2-carboxylic acid (1-hydroxy-3,3-dimethyl-1,3-dihydro-benzo[c][1,2]oxaborol-6-yl)-amide] | 100 (≈ 28.2 µg/mL) | – | – | – | > 10 | – | > 5
CC1(C)OB(O)c2cc(NC(=O)c3ccc(F)cc3)ccc21 [compound 44, 4-Fluoro-N-(1-hydroxy-3,3-dimethyl-1,3-dihydro-benzo[c][1,2]oxaborol-6-yl)-benzamide] | 100 (≈ 29.9 µg/mL) | – | – | – | > 10 | > 16700 | > 5
CC1(C)OB(O)c2cc(NC(=O)c3ccccc3Br)ccc21 [compound 39, 2-Bromo-N-(1-hydroxy-3,3-dimethyl-1,3-dihydro-benzo[c][1,2]oxaborol-6-yl)-benzamide] | 50 (≈ 18 µg/mL) | >44 | – | – | > 10 | 631 | 0.227
